{"source": "patent US20250186436A1", "about": "(4E Therapeutics, Inc., priority 2021, published 2025)", "key": {"[1]": {"test": "PK study in male Sprague-Dawley rats dosed once per day for five days, PO 25 mg/kg, 0.5% HPMC (Example 8)", "format": "in vivo", "conditions": "0.5% HPMC suspension; for AUC(0-inf) / concentration at 24 h / Cmax / half-life / AUC(0-t) / MRT inf / Tmax: Sprague-Dawley, po; for concentration at 24 h: read-out: Clast", "procedure": "Example 8. PK study of 4ET-03-053 in male Sprague-Dawley rats dosed once per day for five days (P0; 25 mg/kg; 0.5HPMC aqueous suspension)\nTable 24 provides plasma and brain concentrations at 24 hr after the last dose of five daily PO doses of 4ET-03-053."}, "paclitaxel CIPN mice": {"test_system": "paclitaxel CIPN mice", "test": "Conditioned Place Preference (CPP) test with chemotherapy induced peripheral neuropathy (CIPN) mice", "format": "in vivo", "procedure": "Mice were treated over a period of 8 days with 4 injections of paclitaxel, made in ethanol and kollipher vehicle, each at 4 mg/kg for a cumulative dose of 16 mg/kg. […] 4ET-03-053 was given with pairing with the white chamber in the CPP box with the idea that pain relief in the white chamber will counteract the natural aversion mice have to areas with bright light."}, "[2]": {"test": "PK study in male Sprague-Dawley rats dosed once per day for five days, PO 10 mg/kg, 0.5% HPMC (Example 7)", "format": "in vivo", "conditions": "0.5% HPMC suspension"}, "[3]": {"test": "PK study in male Sprague-Dawley rats dosed once per day for five days, PO 25 mg/kg, 0.5% HPMC (Example 8)", "format": "in vivo", "conditions": "0.5% HPMC suspension"}, "[4]": {"test": "Liver microsome stability", "conditions": "mouse, liver microsomes"}, "P-gp (human MDR1, ABCB1)": {"test_system": "P-gp (human MDR1, ABCB1)", "test": "MDCK-MDR1 permeability (blood-brain barrier permeability)", "conditions": "dog"}, "[5]": {"conditions": "male, rat, in vivo, 25 mg/kg, day five of daily PO 25 mg/kg, mean (n = 3)"}, "[6]": {"conditions": "male, rat, in vivo, 25 mg/kg, single PO 25 mg/kg dose, individual animals"}, "[7]": {"conditions": "male, rat, in vivo, 25 mg/kg, single PO 25 mg/kg dose, mean (n = 3)"}, "[8]": {"conditions": "single PO 25 mg/kg dose, individual animals, 25 mg/kg"}, "[9]": {"conditions": "single PO 25 mg/kg dose, mean (n = 3)"}}, "note": "Where “and” joins values, the source holds several entries; their conditions need not be identical. Identical values can stand only once. Like-named read-outs stand apart in the source and are kept apart here.", "data": [{"smiles": "Cc1cc(Nc2cc(N)ncn2)c(=O)n2c1C(=O)NC21CCC2(CC2)CC1", "note": "[4ET-03-053, 6″-((6-Aminopyrimidin-4-yl)amino)-8″-methyl-2″H-dispiro[cyclopropane-1,1′-cyclohexane-4′,3″-imidazo[1,5-a]pyridine]-1″,5″-dione]", "values": [{"measurement": "AUC(0-inf)", "setting": "[1]; male, rat, in vivo, 25 mg/kg, day five of daily PO 25 mg/kg, individual animals, read-out: AUCinf", "result": 408, "unit": "µg·h/mL"}, {"measurement": "concentration at 24 h", "setting": "[1]; male, rat, in vivo, 25 mg/kg, day five of daily PO 25 mg/kg, individual animals", "result": 6220, "unit": "ng/mL"}, {"measurement": "Cmax", "setting": "[1]; male, rat, in vivo, 25 mg/kg, day five of daily PO 25 mg/kg, individual animals, read-out: Cmax", "result": 29600, "unit": "ng/mL"}, {"measurement": "half-life", "setting": "[1]; male, rat, in vivo, 25 mg/kg, day five of daily PO 25 mg/kg, individual animals, read-out: t1/2 (converted)", "result": 11, "unit": "h"}, {"measurement": "AUC(0-t)", "setting": "[1]; [5]", "result": 367, "unit": "µg·h/mL"}, {"measurement": "MRT inf", "setting": "[1]; [5]", "result": 14.1, "unit": "h"}, {"measurement": "Tmax", "setting": "[1]; [5]", "result": 1, "unit": "h"}, {"measurement": "AUC(0-inf)", "setting": "[1]; male, rat, in vivo, 25 mg/kg, day five of daily PO 25 mg/kg, mean (n = 3), read-out: AUCinf", "result": 456, "unit": "µg·h/mL"}, {"measurement": "concentration at 24 h", "setting": "[1]; [5]", "result": 5890, "unit": "ng/mL"}, {"measurement": "Cmax", "setting": "[1]; male, rat, in vivo, 25 mg/kg, day five of daily PO 25 mg/kg, mean (n = 3), read-out: Cmax", "result": 28800, "unit": "ng/mL"}, {"measurement": "half-life", "setting": "[1]; male, rat, in vivo, 25 mg/kg, day five of daily PO 25 mg/kg, mean (n = 3), read-out: t1/2 (converted)", "result": 10.5, "unit": "h"}, {"measurement": "AUC(0-t)", "setting": "[1]; [6]", "result": 288, "unit": "µg·h/mL"}, {"measurement": "MRT inf", "setting": "[1]; [6]", "result": 9.26, "unit": "h"}, {"measurement": "Tmax", "setting": "[1]; [6]", "result": 1, "unit": "h"}, {"measurement": "AUC(0-inf)", "setting": "[1]; male, rat, in vivo, 25 mg/kg, single PO 25 mg/kg dose, individual animals, read-out: AUCinf", "result": 315, "unit": "µg·h/mL"}, {"measurement": "concentration at 24 h", "setting": "[1]; [6]", "result": 3130, "unit": "ng/mL"}, {"measurement": "Cmax", "setting": "[1]; male, rat, in vivo, 25 mg/kg, single PO 25 mg/kg dose, individual animals, read-out: Cmax", "result": 24400, "unit": "ng/mL"}, {"measurement": "AUC(0-t)", "setting": "[1]; [7]", "result": 312, "unit": "µg·h/mL"}, {"measurement": "MRT inf", "setting": "[1]; [7]", "result": 9.25, "unit": "h"}, {"measurement": "Tmax", "setting": "[1]; [7]", "result": 1.33, "unit": "h"}, {"measurement": "AUC(0-inf)", "setting": "[1]; male, rat, in vivo, 25 mg/kg, single PO 25 mg/kg dose, mean (n = 3), read-out: AUCinf", "result": 341, "unit": "µg·h/mL"}, {"measurement": "Cmax", "setting": "[1]; male, rat, in vivo, 25 mg/kg, single PO 25 mg/kg dose, mean (n = 3), read-out: Cmax", "result": 25900, "unit": "ng/mL"}, {"measurement": "half-life", "setting": "[1]; male, rat, in vivo, 25 mg/kg, single PO 25 mg/kg dose, mean (n = 3), read-out: t1/2 (converted)", "result": 6.82, "unit": "h"}, {"measurement": "Cmax", "setting": "[1]; male, rat, in vivo, 25 mg/kg, single PO 25 mg/kg, read-out: peak plasma concentration (Cmax)", "result": 25900, "unit": "ng/mL"}, {"measurement": "half-life", "setting": "[1]; male, rat, in vivo, 25 mg/kg, single PO 25 mg/kg, read-out: terminal half-life (t1/2) (converted)", "result": 6.82, "unit": "h"}, {"measurement": "AUC(0-inf)", "setting": "[1]; male, rat, in vivo, 25 mg/kg, single PO 25 mg/kg, read-out: total systemic exposure (AUCinf)", "result": 341, "unit": "µg·h/mL"}, {"measurement": "bioavailability", "setting": "[1]; male, rat, in vivo, after the last of five daily 25 mg/kg PO doses", "result": 35.5, "unit": "%"}, {"measurement": "AUCinf", "setting": "[1]; [8]", "result": "363.793 µg·h/mL and 345.084 µg·h/mL"}, {"measurement": "AUCinf/D", "setting": "[1]; [8]", "result": "12599 kg·h/kL and 14552 kg·h/kL and 13803 kg·h/kL"}, {"measurement": "AUClast", "setting": "[1]; [8]", "result": "336.46 µg·h/mL and 313.078 µg·h/mL"}, {"measurement": "Clast", "setting": "[1]; [8]", "result": "2660 ng/mL and 2870 ng/mL"}, {"measurement": "Cmax/D", "setting": "[1]; [8]", "result": "976 kg/kL and 984 kg/kL and 1152 kg/kL"}, {"measurement": "F", "setting": "[1]; [8]", "result": "24.5% and 28.3% and 26.8%"}, {"measurement": "MRTinf", "setting": "[1]; [8]", "result": "8.89 h and 9.60 h"}, {"measurement": "t1/2", "setting": "[1]; [8]", "result": "6.94 h and 6.50 h"}, {"measurement": "AUCinf/D", "setting": "[1]; [9]", "result": 13651, "unit": "kg·h/kL"}, {"measurement": "Cmax/D", "setting": "[1]; [9]", "result": 1037, "unit": "kg/kL"}, {"measurement": "CPP: time in white (drug-paired) chamber", "setting": "paclitaxel CIPN mice; CIPN mice (paclitaxel), 10 mg/kg", "result": "spent more time in the white chamber vs. dark chambers"}, {"measurement": "CPP: effect in mice without CIPN (reward)", "setting": "paclitaxel CIPN mice; mice that did not have CIPN", "result": "no effect"}, {"measurement": "MRT inf", "setting": "[2]; male, Sprague-Dawley, rat, in vivo, po, 10 mg/kg, single PO 10 mg/kg dose, mean (n = 3)", "result": 7.43, "unit": "h"}, {"measurement": "AUC(0-inf)", "setting": "[2]; male, Sprague-Dawley, rat, in vivo, po, 10 mg/kg, single PO 10 mg/kg, read-out: total systemic exposure (AUCinf)", "result": 272, "unit": "µg·h/mL"}, {"measurement": "t1/2", "setting": "[2]; single PO 10 mg/kg dose, individual animals, 10 mg/kg", "result": "4.83 h and 5.11 h"}, {"measurement": "time to peak plasma concentration", "setting": "[2]; single PO 10 mg/kg", "result": "≤ 2", "unit": "h"}, {"measurement": "half-life", "setting": "[3]; male, Sprague-Dawley, rat, in vivo, po, 25 mg/kg, single PO 25 mg/kg dose, individual animals", "result": 7.03, "unit": "h"}, {"measurement": "concentration at 24 h", "setting": "[3]; male, Sprague-Dawley, rat, in vivo, po, 25 mg/kg, single PO 25 mg/kg dose, mean (n = 3), read-out: Clast", "result": 2890, "unit": "ng/mL"}, {"measurement": "concentration at 24 h", "setting": "[3]; male, Sprague-Dawley, rat, in vivo, po, 25 mg/kg, single PO 25 mg/kg, at 24 hr, read-out: last measurable concentration", "result": 2890, "unit": "ng/mL"}, {"measurement": "F", "setting": "[3]; [9]", "result": 26.5, "unit": "%"}, {"measurement": "time to peak plasma concentration", "setting": "[3]; single PO 25 mg/kg", "result": "≤ 2", "unit": "h"}, {"measurement": "half-life", "setting": "[4]", "result": 3.8, "unit": "h"}, {"measurement": "Papp A→B at 5 uM", "setting": "P-gp (human MDR1, ABCB1)", "result": 63.3, "unit": "×10⁻⁶ cm/s"}, {"measurement": "Papp B→A at 5 uM", "setting": "P-gp (human MDR1, ABCB1)", "result": 68.1, "unit": "×10⁻⁶ cm/s"}, {"measurement": "efflux ratio at 5 uM", "setting": "P-gp (human MDR1, ABCB1)", "result": 1.1}]}]}
